Measurements as given in US20250163104A1, “MACROCYCLIC IMMUNOMODULATORS” (priority 2021, published 2025).
Where a SMILES comes first, the peptide text is derived from it. Bridges are numbered along the chain shown (N, C = ends). [ ]: non-standard residue; d: D form. The star is where a group is joined. ξ: configuration not given here. Bip(3'-COOH) = N[C@@H](Cc1ccc(-c2cccc(C(=O)O)c2)cc1)C(=O)O; Phe(3-CF3) = N[C@@H](Cc1cccc(C(F)(F)F)c1)C(=O)O; Phe(4-COOH) = N[C@@H](Cc1ccc(C(=O)O)cc1)C(=O)O; Bip = N[C@@H](Cc1ccc(-c2ccccc2)cc1)C(=O)O; Phe(3-OMe) = COc1cccc(C[C@H](N)C(=O)O)c1; Phe(3-Me) = Cc1cccc(C[C@H](N)C(=O)O)c1; Benzoyl(4-F) = O=C(c1ccc(F)cc1)*; 3Pal = N[C@@H](Cc1cccnc1)C(=O)O; 4Pal = N[C@@H](Cc1ccncc1)C(=O)O; 2Thi = N[C@@H](Cc1cccs1)C(=O)O; Cha = N[C@@H](CC1CCCCC1)C(=O)O; Cit = NC(=O)NCCC[C@H](N)C(=O)O; Ile(3ξ) = CCC(C)[C@H](N)C(=O)O; Carboxymethyl = O=C(O)C*; Nle = CCCC[C@H](N)C(=O)O; Orn = NCCC[C@H](N)C(=O)O; Dab = NCC[C@H](N)C(=O)O; Dap = NC[C@H](N)C(=O)O; ξOrn = NCCCC(N)C(=O)O

Biological target: T1, human PD-1 / PD-L1-Ig binding on Jurkat cell line over-expressing human PD-1 (Jurkat-PD-1) (Homo sapiens, UniProt Q15116)
T1 construct: expressed in transfected cells; host or cells: Jurkat
T1 sequence (Q15116 25-288): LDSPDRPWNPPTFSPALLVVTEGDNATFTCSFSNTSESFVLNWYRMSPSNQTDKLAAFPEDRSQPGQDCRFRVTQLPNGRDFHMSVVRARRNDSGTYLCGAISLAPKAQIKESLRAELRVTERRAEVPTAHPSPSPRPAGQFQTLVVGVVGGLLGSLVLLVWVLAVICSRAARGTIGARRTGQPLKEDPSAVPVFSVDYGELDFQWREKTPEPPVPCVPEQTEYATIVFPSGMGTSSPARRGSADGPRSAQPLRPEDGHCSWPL
Assay: Jurkat-PD-1 Cell Binding High-Content Screening Assay (CBA)
Format: cell-based
Conditions: Jurkat-PD-1 cells, PE-labeled PD-L1-Ig 20 nM final; read-out: Jurkat HPD1_PDL1 IC50
Procedure, shortened: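 Jurkat-hPD-1 cells in DMEM with 10% fetal calf serum receive test compound and are held at 37° C for 2 h. PE-labeled PD-L1-Ig is added at 20 nM final and left for 1 hour. Cells are then fixed and Hoechst-stained, and binding is measured by imaging.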

Row | IC50 [nM] | Structure (SMILES)
1 | 50.1 | CCC(C)[C@@H]1NC(=O)[C@H](Cc2ccc(-c3ccccc3)cc2)NC(=O)[C@H](C(C)C)NC(=O)[C@H](Cc2c[nH]c3ccccc23)NC(=O)[C@H](CC(=O)O)NC(=O)[C@H](Cc2ccc(-c3cccc(C(=O)O)c3)cc2)NC(=O)[C@H](Cc2ccccc2)NC(=O)CSC[C@@H](C(=O)N[C@@H](C)C(N)=O)NC(=O)[C@H]([C@@H](C)O)NC(=O)[C@H](C(C)C)NC(=O)[C@H](CC2CCCCC2)NC(=O)[C@H](CCN)NC(=O)[C@@H](CC(C)C)NC(=O)[C@H](CCCN)NC1=O (stereo partly drawn) [Compound 2218] ({CH2CO}-F[Bip(3'-COOH)]DWV[Bip][Ile(3ξ)][Orn][dL][Dab][Cha]VTCA-NH2; thioether N-14)
2 | 16.5 | CC(C)C[C@H]1NC(=O)[C@H](CCCN)NC(=O)[C@H](CCC(=O)O)NC(=O)[C@H](Cc2ccc(-c3ccccc3)cc2)NC(=O)[C@H](C(C)C)NC(=O)[C@H](Cc2c[nH]c3ccccc23)NC(=O)[C@H](CC(=O)O)NC(=O)[C@H](Cc2cccs2)NC(=O)[C@H](Cc2ccncc2)NC(=O)CSC[C@@H](C(=O)N[C@@H](C)C(N)=O)NC(=O)[C@H]([C@@H](C)O)NC(=O)[C@H](C(C)C)NC(=O)[C@H](CC2CCCCC2)NC(=O)[C@H](CCN)NC1=O [Compound 2194] ({CH2CO}-[4Pal][2Thi]DWV[Bip]E[Orn][dL][Dab][Cha]VTCA-NH2; thioether N-14)
3 | 79.3 | Cc1cccc(C[C@@H]2NC(=O)[C@H](CC(=O)O)NC(=O)[C@H](Cc3ccc(OCC(=O)O)cc3)NC(=O)[C@H](CCNC(=O)c3ccc(F)cc3)NC(=O)CSC[C@@H](C(N)=O)NC(=O)[C@H]([C@@H](C)O)NC(=O)[C@H](C(C)C)NC(=O)[C@H](CC3CCCCC3)NC(=O)[C@H](CCN)NC(=O)[C@@H](CC(C)C)NC(=O)[C@H](CCCN)NC(=O)[C@H](Cc3ccc(OCC(=O)O)cc3)NC(=O)[C@H](Cc3ccc(-c4ccccc4)cc3)NC(=O)[C@H](Cc3ccc(O)cc3)NC2=O)c1 [Compound 2049] ({CH2CO}-[Dab](Benzoyl(4-F))Y(Carboxymethyl)D[Phe(3-Me)]Y[Bip]Y(Carboxymethyl)[Orn][dL][Dab][Cha]VTC-NH2; thioether N-14)
4 | 13.6 | CCC[C@@H]1NC(=O)[C@H](Cc2c[nH]c3ccccc23)NC(=O)[C@H](CC(=O)O)NC(=O)[C@H](Cc2ccc(OCC(=O)O)cc2)NC(=O)[C@H](CN)NC(=O)CSC[C@@H](C(=O)N[C@@H](C)C(N)=O)NC(=O)[C@H]([C@@H](C)O)NC(=O)[C@H](C(C)C)NC(=O)[C@H](CC2CCCCC2)NC(=O)[C@H](CCN)NC(=O)[C@@H](CC(C)C)NC(=O)[C@H](CCCN)NC(=O)[C@H](C(C)C)NC(=O)[C@H](Cc2ccc(-c3ccccc3)cc2)NC1=O [Compound 1735]
5 | 16.2 | CC[C@H](C)[C@@H]1NC(=O)[C@H](Cc2ccc(-c3ccccc3)cc2)NC(=O)[C@H](C(C)C)NC(=O)[C@H](Cc2c[nH]c3ccccc23)NC(=O)[C@H](CC(=O)O)NC(=O)[C@H](Cc2ccc(O)cc2)NC(=O)[C@H](CC(N)=O)NC(=O)CSC[C@@H](C(=O)NCC(N)=O)NC(=O)[C@H](CO)NC(=O)[C@H](C(C)C)NC(=O)[C@H](CC(C)C)NC(=O)[C@H](CCN)NC(=O)[C@@H](CC(C)C)NC(=O)[C@H](CCCCN)NC1=O [Compound 1122] ({CH2CO}-NYDWV[Bip]IK[dL][Dab]LVSCG-NH2; thioether N-14)
6 | 26.8 | CC(C)C[C@@H]1NC(=O)[C@H](CCN)NC(=O)[C@@H](CC(C)C)NC(=O)[C@@H](CC(=O)O)NC(=O)[C@H](C(C)C)NC(=O)[C@H](Cc2ccc(-c3ccccc3)cc2)NC(=O)[C@H](C(C)C)NC(=O)[C@H](Cc2c[nH]c3ccccc23)NC(=O)[C@H](CC(=O)O)NC(=O)[C@H](Cc2ccc(O)cc2)NC(=O)[C@H](CC(N)=O)NC(=O)CSC[C@@H](C(=O)N[C@@H](C)C(N)=O)NC(=O)[C@H]([C@@H](C)O)NC(=O)[C@H](C(C)C)NC1=O [Compound 1021] ({CH2CO}-NYDWV[Bip]V[dD][dL][Dab]LVTCA-NH2; thioether N-14)
7 | 5.8 | COc1cccc(C[C@@H]2NC(=O)[C@H](CC(=O)O)NC(=O)[C@H](Cc3ccc(C(=O)O)cc3)NC(=O)[C@H](Cc3ccncc3)NC(=O)CSC[C@@H](C(=O)N[C@@H](C)C(N)=O)NC(=O)[C@H]([C@@H](C)O)NC(=O)[C@H](C(C)C)NC(=O)[C@H](CC(C)C)NC(=O)[C@H](CCN)NC(=O)[C@@H](CC(C)C)NC(=O)[C@H](CCCN)NC(=O)[C@H](CCCNC(N)=O)NC(=O)[C@H](Cc3ccc(-c4ccccc4)cc3)NC(=O)[C@H](C(C)C)NC2=O)c1 [Compound 1179] ({CH2CO}-[4Pal][Phe(4-COOH)]D[Phe(3-OMe)]V[Bip][Cit][Orn][dL][Dab]LVTCA-NH2; thioether N-14)
8 | 3.4 | CCCC[C@@H]1NC(=O)[C@H](CCN)NC(=O)[C@@H](CC(C)C)NC(=O)[C@H](CCCN)NC(=O)[C@H](CCCNC(N)=O)NC(=O)[C@H](Cc2ccc(-c3ccccc3)cc2)NC(=O)[C@H](C(C)C)NC(=O)[C@H](Cc2cccc(C)c2)NC(=O)[C@H](CC(=O)O)NC(=O)[C@H](Cc2ccc(C(=O)O)cc2)NC(=O)[C@H](CN)NC(=O)CSC[C@@H](C(=O)N[C@@H](C)C(N)=O)NC(=O)[C@H]([C@@H](C)O)NC(=O)[C@H](C(C)C)NC1=O [Compound 1201] ({CH2CO}-[Dap][Phe(4-COOH)]D[Phe(3-Me)]V[Bip][Cit][Orn][dL][Dab][Nle]VTCA-NH2; thioether N-14)
9 | 17.7 | CC(C)C[C@H]1NC(=O)[C@H](CCCN)NC(=O)[C@H](CCC(=O)O)NC(=O)[C@H](Cc2ccc(-c3ccccc3)cc2)NC(=O)[C@H](C(C)C)NC(=O)[C@H](Cc2c[nH]c3ccccc23)NC(=O)[C@H](CC(=O)O)NC(=O)[C@H](Cc2cccnc2)NC(=O)[C@H](Cc2ccncc2)NC(=O)CSC[C@@H](C(=O)N[C@@H](C)C(N)=O)NC(=O)[C@H]([C@@H](C)O)NC(=O)[C@H](C(C)C)NC(=O)[C@H](CC2CCCCC2)NC(=O)[C@H](CCN)NC1=O [Compound 2174] ({CH2CO}-[4Pal][3Pal]DWV[Bip]E[Orn][dL][Dab][Cha]VTCA-NH2; thioether N-14)
10 | 78.6 | CC(C)C[C@@H]1NC(=O)[C@H](C(C)C)NC(=O)[C@H](CC2CCCCC2)NC(=O)[C@H](CCN)NC(=O)[C@@H](CC(C)C)NC(=O)[C@H](CCCN)NC(=O)[C@H](CCCNC(N)=O)NC(=O)[C@H](Cc2ccc(-c3ccccc3)cc2)NC(=O)[C@H](C(C)C)NC(=O)[C@H](Cc2c[nH]c3ccccc23)NC(=O)[C@H](CC(=O)O)NC(=O)[C@H](Cc2ccc(OCC(=O)O)cc2)NC(=O)[C@H](CN)NC(=O)CSC[C@@H](C(=O)N[C@@H](C)C(N)=O)NC1=O [Compound 1321] ({CH2CO}-[Dap]Y(Carboxymethyl)DWV[Bip][Cit][Orn][dL][Dab][Cha]VLCA-NH2; thioether N-14)
11 | 31.6 | CC(C)C[C@@H]1NC(=O)[C@H](CCN)NC(=O)[C@@H](CC(C)C)NC(=O)[C@H](CCN)NC(=O)[C@H](CCCNC(N)=O)NC(=O)[C@H](Cc2ccc(-c3ccccc3)cc2)NC(=O)[C@H](C(C)C)NC(=O)[C@H](Cc2c[nH]c3ccccc23)NC(=O)[C@H](CC(=O)O)NC(=O)[C@H](Cc2ccc(O)cc2)NC(=O)[C@H](CC(N)=O)NC(=O)CSC[C@@H](C(=O)NCC(N)=O)NC(=O)[C@H](CO)NC(=O)[C@H](C(C)C)NC1=O [Compound 1114] ({CH2CO}-NYDWV[Bip][Cit][Dab][dL][Dab]LVSCG-NH2; thioether N-14)
12 | 52 | CCCC[C@@H]1NC(=O)[C@H](CC(N)=O)NC(=O)[C@@H](CC(C)C)NC(=O)[C@H](CCCN)NC(=O)[C@H](C(C)C)NC(=O)[C@H](Cc2ccc(-c3ccccc3)cc2)NC(=O)[C@H](CC(C)C)NC(=O)[C@H](Cc2c[nH]c3ccccc23)NC(=O)[C@H](CC(=O)O)NC(=O)[C@H](Cc2ccc(O)cc2)NC(=O)[C@H](Cc2ccccc2)NC(=O)CSC[C@@H](C(=O)NCC(N)=O)NC(=O)[C@H](CO)NC(=O)[C@H](C(C)C)NC1=O [Compound 1339] ({CH2CO}-FYDWL[Bip]V[Orn][dL]N[Nle]VSCG-NH2; thioether N-14)
13 | 17.7 | CC(C)C[C@H]1NC(=O)[C@H](CCCN)NC(=O)[C@H](CCC(=O)O)NC(=O)[C@H](Cc2ccc(-c3ccccc3)cc2)NC(=O)[C@H](C(C)C)NC(=O)[C@H](Cc2cccc(C(F)(F)F)c2)NC(=O)[C@H](CC(=O)O)NC(=O)[C@H](Cc2ccncc2)NC(=O)[C@H](CN)NC(=O)CSC[C@@H](C(=O)N[C@@H](C)C(N)=O)NC(=O)[C@H]([C@@H](C)O)NC(=O)[C@H](C(C)C)NC(=O)[C@H](CC2CCCCC2)NC(=O)[C@H](CCN)NC1=O [Compound 1459] ({CH2CO}-[Dap][4Pal]D[Phe(3-CF3)]V[Bip]E[Orn][dL][Dab][Cha]VTCA-NH2; thioether N-14)
14 | 41.4 | CC(C)C[C@@H]1NC(=O)[C@H](Cc2c[nH]c3ccccc23)NC(=O)[C@H](CC(=O)O)NC(=O)[C@H](Cc2ccc(O)cc2)NC(=O)[C@H](Cc2ccccc2)NC(=O)CSC[C@@H](C(=O)N[C@@H](C)C(N)=O)NC(=O)[C@H](CO)NC(=O)[C@H](C(C)C)NC(=O)[C@H](CC(C)C)NC(=O)[C@H](CC(N)=O)NC(=O)[C@@H](C)NC(=O)[C@H](CCN)NC(=O)[C@H](C(C)C)NC(=O)[C@H](Cc2ccc(-c3ccccc3)cc2)NC1=O [Compound 1100] ({CH2CO}-FYDWL[Bip]V[Dab][dA]NLVSCA-NH2; thioether N-14)
15 | 4.9 | Cc1cccc(C[C@@H]2NC(=O)[C@H](CC(=O)O)NC(=O)[C@H](Cc3ccc(OCC(=O)O)cc3)NC(=O)[C@H](CN)NC(=O)CSC[C@@H](C(=O)N[C@@H](CCN)C(N)=O)NC(=O)C(CCCN)NC(=O)[C@H](C(C)C)NC(=O)[C@H](CC3CCCCC3)NC(=O)[C@H](CCN)NC(=O)[C@@H](CC(C)C)NC(=O)[C@H](CCCN)NC(=O)[C@H](Cc3ccc(O)cc3)NC(=O)[C@H](Cc3ccc(-c4ccccc4)cc3)NC(=O)[C@H](Cc3ccc(O)cc3)NC2=O)c1 (stereo partly drawn) [Compound 2256] ({CH2CO}-[Dap]Y(Carboxymethyl)D[Phe(3-Me)]Y[Bip]Y[Orn][dL][Dab][Cha]V[ξOrn]C[Dab]-NH2; thioether N-14)
